Measured values reported in patent US12157730B2, “Heteroaryl derivative, method for producing same, and pharmaceutical composition comprising same as effective component” (VORONOI INC., priority 2019, dated 2024).

Target: T1, Ba/F3 cell EGFR Exon20 ins NPH (Homo sapiens, UniProt P00533, INS773NPH)
T1 construct: expressed in transfected cells; host or cells: Ba/F3
Assay: Ba/F3 cell proliferation suppression, EGFR Exon20 ins NPH
Format: cell-based
Conditions: GI50 class; Ba/F3 cell line with NPH inserted at Exon20 of EGFR; 72 hours
Method in brief: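 After 72 h compound exposure (twelve 3-fold steps, 0.3 nM–50 um final), live cells were measured by CellTiter-Glo luminescence and growth expressed as % of control to derive GI50. Cells were seeded at 3000–5000 per well a day earlier; Ba/F3 medium contained IL-3; three repeats.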

Row | SMILES | Ba/F3 (NPH) Activity
1 | C=CC(=O)Nc1cc(Nc2cc(N3OCC[C@@H]3Cc3ccccc3)ncn2)c(OC)cc1N1CC2CC1CN2C (stereo partly drawn) [compound 969, N-(5-((6-((S)-3-benzylisoxazolidine-2-yl)pyrimidine-4-yl)amino)-4-methoxy-2-(5-methyl-2,5-diazabicyclo[2.2.1]heptane-2-yl)phenyl) acrylamide] | A (GI50 < 50 nM)
2 | C=CC(=O)Nc1cc(Nc2cc(N3OCC[C@@H]3c3cccc(C)c3F)ncn2)c(OC)cc1N(C)CCOC [compound 319, N-(5-((6-((R)-3-(2-fluoro-3-methylphenyl)isoxazolidine-2-yl)pyrimidine-4-yl)amino)-4-methoxy-2-((2-methoxyethyl) (methyl)amino)phenyl)acrylamide] | B (50 nM ≤ GI50 < 500 nM)
3 | C=CC(=O)Nc1cc(Nc2cc(N3OCC[C@@H]3c3ccc(Cl)c(Cl)c3)ncn2)c(OC)cc1N1CCN(C2CCN(C)CC2)CC1 [compound 685, N-(5-((6-((R)-3-(3,4-dichlorophenyl)isoxazolidine-2-yl)pyrimidine-4-yl)amino)-4-methoxy-2-(4-(1-methylpiperidine-4-yl)piperazine-1-yl)phenyl) acrylamide] | A (GI50 < 50 nM)
4 | C=CC(=O)Nc1cc(Nc2cc(N3OCC[C@@H]3c3cc(F)cc(F)c3)ncn2)c(OC)cc1N1CCC(N2CCN(C3CC3)[C@H](C)C2)CC1 [Example 109, N-(2-(4-((R)-4-cyclopropyl-3-methylpiperazine-1-yl)piperidine-1-yl)-5-((6-((R)-3-(3,5-difluorophenyl)isoxazolidine-2-yl)pyrimidine-4-yl)amino)-4-methoxyphenyl) acrylamide] | A (GI50 < 50 nM)
5 | C=CC(=O)Nc1cc(Nc2cc(N3OCC[C@@H]3Cc3cc(F)cc(F)c3)ncn2)c(OC)cc1N1CCN(C2CC2)CC1 [compound 1032, N-(2-(4-cyclopropylpiperazine-1-yl)-5-((6-(S)-(3-(3,5-difluorobenzyl)isoxazolidine-2-yl)pyrimidine-4-yl)amino)-4-methoxyphenyl) acrylamide] | B (50 nM ≤ GI50 < 500 nM)
6 | C=CC(=O)Nc1cc(Nc2cc(N3OCC[C@@H]3c3cc(F)ccc3F)ncn2)c(OC)cc1N1CCN(CCC)CC1 [compound 300, N-(5-((6-((R)-3-(2,5-difluorophenyl)isoxazolidine-2-yl)pyrimidine-4-yl)amino)-4-methoxy-2-(4-propylpiperazine-1-yl)phenyl)acrylamide] | A (GI50 < 50 nM)
7 | C=CC(=O)Nc1cc(Nc2cc(N3OCC[C@@H]3c3cccc(C(F)(F)F)c3)ncn2)c(OC)cc1N1CCC(N2CCN(C3CC3)[C@H](C)C2)CC1 [compound 942, N-(2-(4-((R)-4-cyclopropyl-3-methylpiperazine-1-yl)piperidine-1-yl)-4-methoxy-5-((6-((R)-3-(3-(trifluoromethyl)phenyl)isoxazolidine-2-yl)pyrimidine-4-yl)amino)phenyl) acrylamide] | A (GI50 < 50 nM)
8 | C=CC(=O)Nc1cc(Nc2cc(N3OCC[C@@H]3c3cccc4ccccc34)ncn2)c(OC)cc1N1CCC(N2CCN(C3COC3)CC2)CC1 [Example 198, N-(4-methoxy-5-((6-((R)-3-(naphthalene-1-yl)isoxazolidine-2-yl)pyrimidine-4-yl)amino)-2-(4-(4-(oxetane-3-yl)piperazine-1-yl)piperidine-1-yl)phenyl)acrylamide] | A (GI50 < 50 nM)
9 | C=CC(=O)Nc1cc(Nc2cc(N3OCC[C@@H]3c3cccc(C#N)c3)ncn2)c(OC)cc1N1CCC(N2CC[C@H](N(C)C)C2)CC1 [compound 435, N-(5-((6-((R)-3-(3-cyanophenyl)isoxazolidine-2-yl)pyrimidine-4-yl)amino)-2-(4-((S)-3-(dimethylamino)pyrolidine-1-yl)piperidine-1-yl)-4-methoxyphenyl) acrylamide] | B (50 nM ≤ GI50 < 500 nM)
10 | C=CC(=O)Nc1cc(Nc2cc(N3OCC[C@@H]3c3cc(F)ccc3F)ncn2)c(OC)cc1N(C)CCOC [compound 327, N-(5-((6-((R)-3-(2,5-difluorophenyl)isoxazolidine-2-yl)pyrimidine-4-yl)amino)-4-methoxy-2-((2-methoxyethyl) (methyl)amino)phenyl)acrylamide] | B (50 nM ≤ GI50 < 500 nM)
11 | C=CCN1CCN(C2CCN(c3cc(OC)c(Nc4cc(N5OCC[C@@H]5c5cc(F)cc(F)c5)ncn4)cc3NC(=O)C=C)CC2)CC1 [Example 87, N-(2-(4-(4-allylpiperazine-1-yl)piperidine-1-yl)-5-((6-((R)-3-(3,5-difluorophenyl)isoxazolidine-2-yl)pyrimidine-4-yl)amino)-4-methoxyphenyl) acrylamide] | A (GI50 < 50 nM)
12 | C=CC(=O)Nc1cc(Nc2cc(N3OCC[C@@H]3c3cccc(F)c3F)ncn2)c(OC)cc1N1CCC(N(C)C)CC1 [compound 926, N-(5-((6-((R)-3-(2,3-difluorophenyl)isoxazolidine-2-yl)pyrimidine-4-yl)amino)-2-(4-(dimethylamino)piperidine-1-yl)-4-methoxyphenyl) acrylamide] | A (GI50 < 50 nM)
13 | C=CC(=O)Nc1cc(Nc2cc(N3OCC[C@@H]3c3ccc(F)c(Cl)c3)ncn2)c(OC)cc1N1CCC(N2C[C@H]3C[C@@H]2CO3)CC1 [Example 257, N-(2-(4-((1R,4R)-2-oxa-5-azabicyclo[2.2.1]heptane-5-yl)piperidine-1-yl)-5-((6-((R)-3-(3-chloro-4-fluorophenyl)isoxazolidine-2-yl)pyrimidine-4-yl)amino)-4-methoxyphenyl) acrylamide] | A (GI50 < 50 nM)
14 | C=CC(=O)Nc1cc(Nc2cc(N3OCC[C@@H]3c3cccc(Cl)c3)ncn2)c(OC)cc1N1CC[C@@H](N(C)C)C1 [compound 469, N-(5-((6-((R)-3-(3-chlorophenyl)isoxazolidine-2-yl)pyrimidine-4-yl)amino)-2-((R)-3-(dimethylamino)pyrolidine-1-yl)-4-methoxyphenyl) acrylamide] | A (GI50 < 50 nM)

The next lines start with the values.

Row | Ba/F3 (NPH) Activity | SMILES
15 | A (GI50 < 50 nM) | C=CC(=O)Nc1cc(Nc2cc(N3OCC[C@@H]3c3ccc(Cl)c(F)c3)ncn2)c(OC)cc1N1CCC(N2CCN(C3CCC3)CC2)CC1 [Example 71, N-(5-((6-((R)-3-(4-chloro-3-fluorophenyl)isoxazolidine-2-yl)pyrimidine-4-yl)amino)-2-(4-(4-cyclobutylpiperazine-1-yl)piperidine-1-yl)-4-methoxyphenyl) acrylamide]
16 | A (GI50 < 50 nM) | C=CC(=O)Nc1cc(Nc2cc(N3OCC[C@@H]3c3cccc(Cl)c3C)ncn2)c(OC)cc1N1CCC(N2CCO[C@@H](C)C2)CC1 [compound 529, N-(5-((6-((R)-3-(3-chloro-2-methylphenyl)isoxazolidine-2-yl)pyrimidine-4-yl)amino)-4-methoxy-2-(4-((S)-2-methylmorpholino)piperidine-1-yl)phenyl) acrylamide]
17 | A (GI50 < 50 nM) | C=CC(=O)Nc1cc(Nc2cc(N3OCC[C@@H]3c3ccc(F)c(Cl)c3)ncn2)c(OC)cc1N1CCC(N2CCO[C@H](C)C2)CC1 [compound 874, N-(5-((6-((R)-3-(3-chloro-4-fluorophenyl)isoxazolidine-2-yl)pyrimidine-4-yl)amino)-4-methoxy-2-(4-((R)-2-methylmorpholino)piperidine-1-yl)phenyl) acrylamide]
18 | A (GI50 < 50 nM) | C=CC(=O)Nc1cc(Nc2cc(N3OCC[C@@H]3c3cccc(Cl)c3F)ncn2)c(OC)cc1N1CCC(N2CCC3(CC2)CC3)CC1 [compound 355, N-(2-(4-(6-azaspiro[2.5]octan-6-yl)piperidine-1-yl)-5-((6-((R)-3-(3-chloro-2-fluorophenyl)isoxazolidine-2-yl)pyrimidine-4-yl)amino)-4-methoxyphenyl) acrylamide]
19 | A (GI50 < 50 nM) | C=CC(=O)Nc1cc(Nc2cc(N3OCC[C@@H]3c3cccc(F)c3F)ncn2)c(OC)cc1N1CCN(C2COC2)CC1 [compound 923, N-(5-((6-((R)-3-(2,3-difluorophenyl)isoxazolidine-2-yl)pyrimidine-4-yl)amino)-4-methoxy-2-(4-(oxetane-3-yl)piperazine-1-yl)phenyl) acrylamide]
20 | A (GI50 < 50 nM) | C=CC(=O)Nc1cc(Nc2cc(N3OCC[C@@H]3c3ccc(F)c(Cl)c3)ncn2)c(OC)cc1N1CCC(N2CCN(C(C)=O)CC2)CC1 [compound 763, N-(2-(4-(4-acetylpiperazine-1-yl)piperidine-1-yl)-5-((6-((R)-3-(3-chloro-4-fluorophenyl)isoxazolidine-2-yl)pyrimidine-4-yl)amino)-4-methoxyphenyl) acrylamide]
21 | C (500 nM ≤ GI50 < 5000 nM) | C=CC(=O)Nc1cc(Nc2cc(N3OCC[C@@H]3c3ccc(Cl)c(Cl)c3F)ncn2)c(OC)cc1N1CC[C@H](N2CCOCC2)C1 [Example 295, N-(5-((6-((R)-3-(3,4-dichloro-2-fluorophenyl)isoxazolidine-2-yl)pyrimidine-4-yl)amino)-4-methoxy-2-((S)-3-morpholinopyrolidine-1-yl)phenyl)acrylamide]
22 | A (GI50 < 50 nM) | C=CC(=O)Nc1cc(Nc2cc(N3OCC[C@@H]3c3ccc(F)c(Cl)c3)ncn2)c(OC)cc1N1CCC(N2CCN(C3CCCC3)CC2)CC1 [Example 99, N-(5-((6-((R)-3-(3-chloro-4-fluorophenyl)isoxazolidine-2-yl)pyrimidine-4-yl)amino)-2-(4-(4-cyclopentylpiperazine-1-yl)piperidine-1-yl)-4-methoxyphenyl) acrylamide]
23 | A (GI50 < 50 nM) | C=CC(=O)Nc1cc(Nc2cc(N3OCC[C@@H]3c3cccc(F)c3F)ncn2)c(OC)cc1N1CCC(N2CCN(C3CCC3)CC2)CC1 [Example 182, N-(2-(4-(4-cyclobutylpiperazine-1-yl)piperidine-1-yl)-5-((6-((R)-3-(2,3-difluorophenyl)isoxazolidine-2-yl)pyrimidine-4-yl)amino)-4-methoxyphenyl) acrylamide]
